“Also recorded” adds a separate entry of the source.
Tests used:
IMR5 cells = assay: Cytotoxicity in IMR5 cells with subcellular eDHFR-YFP; assay type: cell-based, human
Method: Using standard cloning procedures and DNA sequence synthesis, the recombinant eDHFR protein was modified in the following ways. First, the eDHFR nucleotide sequence was extended with a yellow fluorescent protein (YFP) domain at the C-terminus to construct a fusion eDHFR-YFP protein. See, Sellmyer, Mol Ther 2020; 28:42-51. Then, one of the following localization domains was added: simian virus 40 nuclear localization signal (NLS) at the N-terminus, human immunodeficiency virus Rev protein nuclear export signal (NES) at the C-terminus, and Saccharolobus solfataricus P2 DNA-binding domain 7d (DNAB) at the N-terminus. See, Kobayashi, Antimicrob Agents Chemother 2006; 50:1118-1119; and Kalichuk, Sci Rep 2016; 6:37274. The resulting library of pUC57 plasmids, each containing one of NLS-eDHFR-YFP, eDHFR-YFP-NES, and DNAB-eDHFR-YFP, were successfully cloned into a lentiviral vector. The lentiviral plasmids were introduced into HEK293T cells for viral production and isolation.
Then, three human cancer cell lines were cultured: HCT116 (colorectal cancer), IMR5 (neuroblastoma), and SKOV3 (ovarian cancer). They were transfected with the three lentiviral constructs for expression of NLS-eDHFR-YFP, eDHFR-YFP-NES, and DNAB-eDHFR-YFP, resulting in nine cell lines in total. Subcellular localization of eDHFR-YFP in the cell lines was verified with fluorescence microscopy.
Cytotoxicity experiments were performed as follows: wild-type IMR5 cells as well as those expressing eDHFR-YFP localized to the DNA, nucleus, and cytoplasm were treated with various concentrations of ^211At-PAB-TMP for 72 hours. The survival fraction for each treatment condition was measured with luminescent cell viability assay.
The resulting survival vs. dose curves were analyzed to determine effective concentrations for 50% reduction in cell viability (EC50). See, FIGS. 16A-16C. […] See, FIGS. 16A-16C. […] 6; 20(7): 1752-1755.

eDHFR [1] = target: T1, eDHFR (Escherichia coli, UniProt P0ABQ4); assay: Differential scanning fluorimetry (thermal shift assay); assay type: binding; details: 0.1 mg/mL protein, 10 mM stock compound, 20-95 °C ramp
T1 sequence (P0ABQ4 1-159): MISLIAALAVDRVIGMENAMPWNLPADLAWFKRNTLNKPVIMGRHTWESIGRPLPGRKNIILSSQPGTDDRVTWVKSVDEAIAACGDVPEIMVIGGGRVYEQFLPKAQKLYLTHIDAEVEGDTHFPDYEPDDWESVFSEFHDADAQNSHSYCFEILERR
Method: Purified protein is diluted to 0.1 mg/mL protein in 500 μL in mild buffer, 25 mM HEPES pH=7.5, 200-500 mM NaCl, DTT. 17 μL of the 0.1 mg/mL protein sample is aliquoted into an opaque white 384 well PCR plate. Then 2 μL of stabilizing additive or 1 μL additive and 1 μL of concentrated drug (10 mM TMP or 10 mM cold mI-TMP or vehicle, plus 1 μL of 1×SYPRO Orange dye was added and the total well volume is 20 μL. The plate is sealed with clear optical cover, protect it from light with foil, and let it incubate for 5 minutes. Then the plate is centrifuged at 3,600×g for 2 minutes. The plate is analyzed on RT-PCR machine using a temperature-ramp method that ranges from 20-95 °C.

eDHFR [2] = target: T1, eDHFR; assay type: cell-based; details: for affinity for eDHFR binding in cells: HCT116 cells, non-radiolabeled, vs para-benzyl-iodo-TMP; for EC50: read-out: EC50 for eDHFR binding, HCT-116 cells, tsLuc-DD-DHFR, compounds not radiolabeled
Serum stability in FBS = assay type: in vitro ADME; details: non-radioactive compound, FBS, 37 °C, 72 h
Method: In vitro serum stability of was performed by adding the [^131I]mI-TMP (50 μL, 1.85 MBq) to fetal bovine serum (500 μL). The mixture was then incubated in a ThermoMixer (800 rpm) at 37 °C, and deiodination was analyzed by radio-TLC (10% NH40Ac:MeOH=3:7) at 0, 24, and 72 h. In this condition, free I-131 moved to solvent front whereas intact [^131I]I-TMP remained at the origin.

OVCAR8-eDHFR-Luc cells = assay: Kill assay (MTT) in OVCAR8-eDHFR-Luc cells; assay type: cell-based, human; details: 18.5 MBq, 1 h; viability to day 12
Method: Following the same uptake protocol till washing after the third wash the cells were counted using cell counter and they were diluted to generate even number of cells/mL. […] We've applied the same blocked conditions used in the uptake assay. […] Then cells will be re-distributed into 96 well plates (2,000 cells/well) with fresh media to monitor cell proliferation by MTT assay on days 1, 3, 7 and 10. A total of 9 wells (3×3) were measured on the plate per sample per time point. To complete the assay cell media was removed and replaced with 50 μL of serum free media and 50 μL of MTT reagent. The plates were covered with tin foil and incubated at 37 °C for 3 hours. The plates were shaken at 200 rpm at 37 °C for 15 min. Using the microplate plate reader, sample absorbance was measured at 590 nm for 600 ms. Controls included [^131I]NaI treated cells and blocking with 10 μM parent TMP (unlabeled). An analogous procedure was used for the OVCAR8-eDHFR-Luc kill assay with different doses (1.85-37 MBq) and treatment times.
To investigate the therapeutic potential of m[^131I]mI-TMP 5b in tumor cell lines, OVCAR8 eDHFR+ cells were exposed to varying doses (ranging from 1.85-37 MBq) of the radiotracer of 5b at different incubation times. Different conditions were employed to assess the selective therapeutic effect of the radio tracer on eDHFR+ cells. To determine the specific killing of eDHFR+ tumor cells, blocked conditions were analyzed. The cell viability of compound 5b-treated cells was also compared with the cells exposed to [^131I]I—Na. Additionally, untreated cells were used as controls. The MTT assay was used to measure the cell viability of the cells under the aforementioned conditions on days 1, 3, 7, and 12.
OVCAR8-eDHFR-Luc+ cells were treated with 1.85 and 18.5 MBq of m[^131I]mI-TMP 5b and [^131I]I—Na, incubated for 1 hour. […] The cell viability of the compound 5b-treated cells was similar to cells under blocked, [^131I]NaI, and no drug conditions. See, FIG. 2A. […] See, FIG. 2B. Based on the results obtained, a continued dose escalation was considered to better understand the therapeutic window. Finally, OVCAR_eDHFR+ cells were tested with 37 MBq dose of m[^131I]mI-TMP.

I45 and SKOV3 cells = assay: Cytotoxicity in wild-type and eDHFR-YFP-expressing I45 and SKOV3 cells; assay type: cell-based, human
Method: After 72 hours of incubation, the surviving fraction of the cells was quantified using CellTiter-Glo (Promega #G9243). See, Makvandi, Molecular cancer therapeutics. […] The assay was performed three times in triplicates. […] See, Lee, Journal of nuclear medicine.

## ^211At-para-astatobenzyl-trimethoprim [^211At-PAB-TMP]
IMR5 cells
  killing of eDHFR expressing neuroblastoma cells: enhanced killing of eDHFR expressing neuroblastoma cells

## COc1cc(Cc2cnc(N)nc2N)cc(I)c1OC [mI-TMP, 5-(3-iodo-4,5-dimethoxybenzyl)pyrimidine-2,4-diamine]
eDHFR [1]
  stabilization of eDHFR in thermal shift assay (DSF): stabilizes eDHFR as TMP
eDHFR [1]; listed as TMP-I (3b)
  stabilization of eDHFR in thermal shift assay (DSF): strongly stabilizes eDHFR, similar to TMP
eDHFR [2]
  affinity for eDHFR binding in cells: higher affinity for eDHFR binding in cells than the para-benzyl-iodo-TMP
  EC50: 5 nM
Serum stability in FBS
  stability in FBS by LCMS: confirmed the stability of TMP-I (3a) in FBS

## O=C1NCCn2c(-c3ccc([211At])cc3)nc3cccc1c32 [^211At-PTT, reference compound]
IMR5 cells; positive control
  difference in cytotoxicity among the eDHFR IMR5 cells: no difference in cellular toxicity; also recorded: did not result in difference in cytotoxicity among the IMR5 cells

## COc1cc(Cc2cnc(N)nc2N)cc(OC)c1OCc1ccc([211At])cc1 [^211At-PAB-TMP, ^211At-para-astatobenzyl-trimethoprim]
IMR5 cells; IMR5 cells, 72 hours, luminescent viability
  cytotoxicity by eDHFR-YFP subcellular location: Higher cytotoxicity was seen with increasing proximity to DNA, resulting in significantly lower EC50 values; also recorded: highest in the IMR5 cells expressing DNA-bound eDHFR-YFP, followed by nuclear and cytoplasmic eDHFR-YFP

## [131I-].[Na+] [[^131I]I—Na, reference compound]
OVCAR8-eDHFR-Luc cells
  cytotoxic effect / cell viability: showed viability and significant growth

## COc1cc(Cc2cnc(N)nc2N)cc(Br)c1OC [mBr-TMP]
eDHFR [2]
  affinity for eDHFR binding in cells: higher affinity for eDHFR binding in cells than the para-benzyl-iodo-TMP
  EC50: 5 nM

## COc1cccc2c1C(=O)c1c(O)c3c(c(O)c1C2=O)C[C@@](O)(C(=O)CO)C[C@@H]3O[C@H]1C[C@H](N)[C@H](O)[C@H](C)O1 [doxorubicin, reference compound]
I45 and SKOV3 cells; 72 h, 10 nM-1 μM
  cytotoxicity of doxorubicin, wild-type vs eDHFR-YFP-expressing cells: comparable cytotoxicity; also recorded: comparable chemosensitivity

## COc1cc(Cc2cnc(N)nc2N)cc(OC)c1OC [TMP, trimethoprim]
I45 and SKOV3 cells; 40 μM, all cell types
  cytotoxicity at the lowest TMP concentration: non-toxic
I45 and SKOV3 cells; 72 h
  cytotoxicity from non-radiolabeled TMP in cells expressing membrane-bound eDHFR-YFP: higher cytotoxicity
